Measurements from patent US8148391B2 (Cephalon, Inc., priority 2006, dated 2012).
Read-outs that look alike come from different tables or passages of the source.

Legend:
[1] = molecular target: T1, baculovirus-expressed ALK (Homo sapiens, UniProt Q9UM73); experiment: ALK Kinase Assay (ELISA-type, time-resolved fluorescence); assay type: biochemical
T1 construct: host or cells: baculovirus expression system
Summary of the method: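 Substrate coating: phospholipase C-γ, 10 μg/mL in TBS. Kinase step: 30 ng/ml ALK, 15 min, 37° C. Detection and analysis: Eu-N1 PT66 antibody, with IC50 fitted as a sigmoidal variable-slope dose-response curve.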

[2] = molecular target: T2, c-Met (cytoplasmic domain) (Homo sapiens, UniProt P08581); experiment: c-Met Kinase Assay (same methods as for ALK, with modifications); assay type: biochemical
T2 construct: 10 ng/mL c-Met (cytoplasmic domain, Invitrogen Corporation #PV3143); purchased Invitrogen Corporation PV3143
Summary of the method: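 This plate-based kinase format uses immobilized phospholipase C-γ as substrate, phosphorylated by c-Met cytoplasmic domain (10 ng/mL) at 37° C for 15 minutes.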

[3] = 1 μM ATP (Km level), read-out: ALK Activity (ALK Kinase Inhibition, IC50)
[4] = 1 μM ATP (Km level), read-out: cMet Activity (c-Met Kinase Inhibition, IC50)
[5] = 1 μM ATP (Km level), 30 ng/ml ALK, 37° C., 15 minutes, read-out: ALK Activity (ALK kinase inhibition, IC50 class)
[6] = 1 μM ATP (Km level), 10 ng/mL c-Met, read-out: cMet Activity (c-Met kinase inhibition, IC50 class)
[7] = ALK kinase inhibition, 1 μM ATP (Km level), read-out: ALK Activity
[8] = c-Met kinase inhibition, 1 μM ATP (Km level), read-out: cMet Activity

T2 sequence (P08581 956-1390 limits assumed): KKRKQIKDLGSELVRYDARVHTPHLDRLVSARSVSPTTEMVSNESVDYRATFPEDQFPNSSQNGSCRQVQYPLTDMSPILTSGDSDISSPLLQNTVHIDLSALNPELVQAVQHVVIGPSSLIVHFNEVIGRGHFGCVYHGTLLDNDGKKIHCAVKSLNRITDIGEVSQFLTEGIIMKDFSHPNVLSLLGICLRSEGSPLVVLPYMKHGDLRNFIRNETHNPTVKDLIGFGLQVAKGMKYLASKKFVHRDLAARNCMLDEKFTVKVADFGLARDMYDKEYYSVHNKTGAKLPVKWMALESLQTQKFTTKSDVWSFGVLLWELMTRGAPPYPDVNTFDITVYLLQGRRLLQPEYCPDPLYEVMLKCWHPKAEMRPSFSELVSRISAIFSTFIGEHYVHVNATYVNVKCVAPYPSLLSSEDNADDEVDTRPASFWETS
T1 sequence (Q9UM73 19-1620): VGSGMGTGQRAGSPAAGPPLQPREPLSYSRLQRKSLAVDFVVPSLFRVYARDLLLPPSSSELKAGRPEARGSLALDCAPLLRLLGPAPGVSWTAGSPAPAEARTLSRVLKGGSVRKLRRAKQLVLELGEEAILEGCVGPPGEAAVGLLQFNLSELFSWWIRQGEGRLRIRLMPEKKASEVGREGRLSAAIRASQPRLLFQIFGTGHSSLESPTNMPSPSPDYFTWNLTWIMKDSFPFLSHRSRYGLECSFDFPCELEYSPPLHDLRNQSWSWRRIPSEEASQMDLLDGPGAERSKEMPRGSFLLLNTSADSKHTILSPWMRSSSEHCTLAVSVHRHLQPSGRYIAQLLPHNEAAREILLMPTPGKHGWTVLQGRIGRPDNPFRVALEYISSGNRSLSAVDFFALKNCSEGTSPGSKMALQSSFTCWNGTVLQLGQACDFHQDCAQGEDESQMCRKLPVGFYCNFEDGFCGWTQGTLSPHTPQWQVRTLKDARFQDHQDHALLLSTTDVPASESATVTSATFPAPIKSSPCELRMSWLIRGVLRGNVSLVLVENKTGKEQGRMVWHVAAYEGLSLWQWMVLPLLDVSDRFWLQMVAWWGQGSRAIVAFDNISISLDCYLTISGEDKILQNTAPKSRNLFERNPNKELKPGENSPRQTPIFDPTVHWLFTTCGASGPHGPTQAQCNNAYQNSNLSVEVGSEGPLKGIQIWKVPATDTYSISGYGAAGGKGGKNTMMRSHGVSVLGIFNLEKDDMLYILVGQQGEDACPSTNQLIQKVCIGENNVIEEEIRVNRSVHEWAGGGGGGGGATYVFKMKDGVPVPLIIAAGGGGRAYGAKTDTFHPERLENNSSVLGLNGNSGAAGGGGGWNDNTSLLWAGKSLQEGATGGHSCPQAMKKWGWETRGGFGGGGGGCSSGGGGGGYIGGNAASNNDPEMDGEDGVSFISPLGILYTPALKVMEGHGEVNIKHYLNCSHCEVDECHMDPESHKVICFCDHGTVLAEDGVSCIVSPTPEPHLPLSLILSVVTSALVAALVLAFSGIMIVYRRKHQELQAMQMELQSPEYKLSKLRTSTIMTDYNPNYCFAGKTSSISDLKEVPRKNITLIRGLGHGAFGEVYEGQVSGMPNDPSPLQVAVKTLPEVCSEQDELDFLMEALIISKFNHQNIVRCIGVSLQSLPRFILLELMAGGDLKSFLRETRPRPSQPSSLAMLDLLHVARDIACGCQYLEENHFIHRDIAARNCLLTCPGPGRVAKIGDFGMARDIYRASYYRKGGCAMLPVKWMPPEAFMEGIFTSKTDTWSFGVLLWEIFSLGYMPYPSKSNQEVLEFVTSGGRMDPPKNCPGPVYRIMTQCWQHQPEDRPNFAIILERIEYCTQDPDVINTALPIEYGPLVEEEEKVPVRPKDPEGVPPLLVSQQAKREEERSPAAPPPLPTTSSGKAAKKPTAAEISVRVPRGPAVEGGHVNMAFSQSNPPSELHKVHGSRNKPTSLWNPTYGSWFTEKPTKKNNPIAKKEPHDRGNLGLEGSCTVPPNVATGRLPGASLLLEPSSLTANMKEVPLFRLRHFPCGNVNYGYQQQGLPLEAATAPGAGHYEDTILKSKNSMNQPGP

Row | SMILES | IC50 [1, 5] [nM] | IC50 [2, 6] [nM] | IC50 [1, 7] [nM] | IC50 [2, 8] [nM] | also measured
1 | COc1cc2c(cc1Nc1ncc(Cl)c(N[C@H]3[C@@H](C(N)=O)[C@@H]4C=C[C@H]3C4)n1)CCN(C(C)C)CC2 [Example 776, (1S,2S,3R,4R)-3-[5-Chloro-2-(3-isopropyl-8-methoxy-2,3,4,5-tetrahydro-1H-benzo[d]azepin-7-ylamino)-pyrimidin-4-ylamino]-bicyclo[2.2.1]hept-5-ene-2-carboxylic acid amide] | – | – | – | – | IC50 [1, 3]: < 100 nM; IC50 [2, 4]: > 10000 nM
2 | COc1cc2c(cc1Nc1ncc(Cl)c(Nc3ccccc3S(=O)(=O)C(C)C)n1)CCC(N1CCN(C)CC1)CC2 (stereo not drawn) [Example 1100, 5-Chloro-N*2*-[3-methoxy-7-(4-methyl-piperazin-1-yl)-6,7,8,9-tetrahydro-5H-benzocyclohepten-2-yl]-N*4*-[2-(propane-2-sulfonyl)-phenyl]-pyrimidine-2,4-diamine] | < 100 | 1000 to 10000 | – | – | –
3 | CCN1CCN(CC)c2cc(Nc3ncc(Cl)c(N[C@@H]4[C@H](C(N)=O)[C@H]5C=C[C@@H]4C5)n3)ccc2C1 [Example 714, (2-exo,3-exo)-3-[5-Chloro-2-(1,4-diethyl-2,3,4,5-tetrahydro-1H-benzo[e][1,4]diazepin-8-ylamino)-pyrimidin-4-ylamino]-bicyclo[2.2.1}hept-5-ene-2-carboxylic acid amide] | – | – | – | – | IC50 [1, 3]: < 100 nM; IC50 [2, 4]: 1000 to 10000 nM
4 | CNC(=O)c1ccccc1Nc1nc(Nc2ccc3c(c2)CCC(N2CCOCC2)CC3)ncc1C(F)(F)F (stereo not drawn) [Example 923, N-Methyl-2-[2-(7-morpholin-4-yl-6,7,8,9-tetrahydro-5H-benzocyclohepten-2-ylamino)-5-trifluoromethyl-pyrimidin-4-ylamino]-benzamide] | – | – | – | – | IC50 [1, 3]: < 100 nM; IC50 [2, 4]: < 100 nM
5 | C#CCN1CC2CCC(C1)c1cc(Nc3ncc(Cl)c(Nc4ccccc4S(=O)(=O)NC)n3)ccc12 (stereo not drawn) [Example 287, 2-[5-Chloro-2-(10-prop-2-ynyl-10-aza-tricyclo[6.3.2.0*2,7*]trideca-2,4,6-trien-4-ylamino)-pyrimidin-4-ylamino]-N-methyl-benzenesulfonamide] | – | – | < 100 | 100 to 1000 | –
6 | COc1cc2c(cc1Nc1ncc(Cl)c(N[C@@H]3CCCC[C@H]3NS(C)(=O)=O)n1)CCC(NCCO)CC2 (single isomer, unassigned) [Example 1094] | < 100 | > 10000 | – | – | –
7 | CNC(=O)c1ccccc1Nc1nc(Nc2cc3c(cc2OC)C(=O)N(C)CCC3)ncc1Cl [Example 107, 2-[5-Chloro-2-(8-methoxy-2-methyl-1-oxo-2,3,4,5-tetrahydro-1H-benzo[c]azepin-7-ylamino)-pyrimidin-4-ylamino]-N-methyl-benzamide] | – | – | < 100 | 100 to 1000 | –
8 | CNC(=O)c1cccc(Cl)c1Nc1nc(Nc2ccc3c(c2)C2CCC(C3)N2CCOC)ncc1Cl (stereo not drawn) [Example 91, 3-Chloro-2-{5-chloro-2-[12-(2-methoxy-ethyl)-12-aza-tricyclo[7.2.1.0*2,7*]dodeca-2(7),3,5-trien-4-ylamino]-pyrimidin-4-ylamino}-N-methyl-benzamide] | – | – | 100 to 1000 | < 100 | –
9 | Cc1ccnc(-c2ccccc2Nc2nc(Nc3ccc4c(c3)CCCC(=O)N4C)ncc2Cl)c1 [Example 1002, 7-{5-Chloro-4-[2-(4-methyl-pyridin-2-yl)-phenylamino]-pyrimidin-2-ylamino}-1-methyl-1,3,4,5-tetrahydro-benzo[b]azepin-2-one] | – | – | – | – | IC50 [1, 3]: 100 to 1000 nM; IC50 [2, 4]: 100 to 1000 nM
10 | CNC(=O)CN1CCc2ccc(Nc3ncc(Cl)c(N[C@@H]4CCCC[C@H]4NS(C)(=O)=O)n3)cc2CC1 [Example 1374, 2-{7-[5-Chloro-4-((1R,2R)-2-methanesulfonylamino-cyclohexylamino)-pyrimidin-2-ylamino]-1,2,4,5-tetrahydro-benzo[d]azepin-3-yl}-N-methyl-acetamide] | < 100 | 100 to 1000 | – | – | –
11 | CCN1CCc2ccc(Nc3ncc([N+](=O)[O-])c(Nc4ccccc4C(=O)NC)n3)cc2CC1 [Example 193, 2-[2-(3-Ethyl-2,3,4,5-tetrahydro-1H-benzo[d]azepin-7-ylamino)-5-nitro-pyrimidin-4-ylamino]-N-methyl-benzamide] | – | – | < 100 | 100 to 1000 | –
12 | COCCNC1CCc2cc(Nc3ncc(Cl)c(Nc4ccccc4S(=O)(=O)N4CCCC4)n3)c(OC)cc2CC1 (stereo not drawn) [Example 1081, 5-Chloro-N*2*-[3-methoxy-7-(2-methoxy-ethylamino)-6,7,8,9-tetrahydro-5H-benzocyclohepten-2-yl]-N*4*-[2-(pyrrolidine-1-sulfonyl)-phenyl]-pyrimidine-2,4-diamine] | < 100 | 1000 to 10000 | – | – | –
13 | CNC(=O)c1ccccc1Nc1nc(Nc2ccc3c(c2)CC(=O)NCC3)ncc1Cl [Example 1811, 2-[5-Chloro-2-(4-oxo-2,3,4,5-tetrahydro-1H-benzo[d]azepin-7-ylamino)-pyrimidin-4-ylamino]-N-methylbenzamide] | – | – | – | – | IC50 ([1]; ALK kinase inhibition, 1 μM ATP, read-out: ALK Activity): < 100 nM; IC50 ([2]; c-Met kinase inhibition, 1 μM ATP, read-out: cMet Activity): < 100 nM
14 | CNC(=O)c1ccccc1Nc1nc(Nc2ccc3c(c2)CN(CCOC)CCS3)ncc1Cl [Example 522, 2-{5-Chloro-2-[8-(2-methoxy-ethyl)-6,7,8,9-tetrahydro-5-thia-8-aza-benzocyclohepten-2-ylamino]-pyrimidin-4-ylamino}-N-methyl-benzamide] | – | – | – | – | IC50 [1, 3]: < 100 nM; IC50 [2, 4]: 100 to 1000 nM
15 | CNC(=O)c1cc(N(C)C)ccc1Nc1nc(Nc2ccc3c(c2)NC(=O)CCC3)ncc1Cl [Example 1412, 2-[5-Chloro-2-(2-oxo-2,3,4,5-tetrahydro-1H-benzo[b]azepin-8-ylamino)-pyrimidin-4-ylamino]-5-dimethylamino-N-methyl-benzamide] | 100 to 1000 | 100 to 1000 | – | – | –
16 | COc1cc2c(cc1Nc1ncc(Cl)c(Nc3ccccc3S(=O)(=O)N3CCCC3)n1)CCN(CCS(C)(=O)=O)CC2 [Example 1178, 5-Chloro-N*2*-[3-(2-methanesulfonyl-ethyl)-8-methoxy-2,3,4,5-tetrahydro-1H-benzo[d]azepin-7-yl]-N*4*-[2-(pyrrolidine-1-sulfonyl)-phenyl]-pyrimidine-2,4-diamine] | < 100 | 100 to 1000 | – | – | –
17 | CNC(=O)c1ccccc1Nc1nc(Nc2ccc3c(c2)CCC(NCC(F)F)CC3)ncc1Cl (stereo not drawn) [Example 660, 2-{5-Chloro-2-[7-(2,2-difluoro-ethylamino)-6,7,8,9-tetrahydro-5H-benzocyclohepten-2-ylamino]-pyrimidin-4-ylamino}-N-methyl-benzamide] | – | – | – | – | IC50 [1, 3]: < 100 nM; IC50 [2, 4]: < 100 nM
18 | CNS(=O)(=O)c1ccccc1Nc1nc(Nc2ccc3c(c2)CCCC(=O)N3CC(=O)O)ncc1Cl [Example 9, {7-[5-Chloro-4-(2-methylsulfamoyl-phenylamino)-pyrimidin-2-ylamino]-2-oxo-2,3,4,5-tetrahydro-benzo[b]azepin-1-yl}-acetic acid] | – | – | < 100 | < 100 | –
19 | NC(=O)C1C2C=CC(C2)C1Nc1nc(Nc2ccc3c(c2)CNC(=O)NC3)ncc1Cl (stereo not drawn) [Example 228, (2-exo,3-exo)-3-[5-Chloro-2-(3-oxo-2,3,4,5-tetrahydro-1H-benzo[e][1,3]diazepin-7-ylamino)-pyrimidin-4-ylamino]-bicyclo[2.2.1]hept-5-ene-2-carboxylic acid amide] | – | – | < 100 | 100 to 1000 | –
20 | COc1cc(N2CCOCC2)ccc1Nc1nc(Nc2ccc3c(c2OC)CCCC(=O)N3)ncc1Cl [Example 140, 7-[5-Chloro-4-(2-methoxy-4-morpholin-4-yl-phenylamino)-pyrimidin-2-ylamino]-6-methoxy-1,3,4,5-tetrahydro-benzo[b]azepin-2-one] | – | – | < 100 | > 10000 | –
21 | COc1cc(N(C)C)ccc1Nc1nc(Nc2ccc3c(c2)C(C)(C)CCC(=O)N3C)ncc1Cl [Example 1342, 7-[5-Chloro-4-(4-dimethylamino-2-methoxy-phenylamino)-pyrimidin-2-ylamino]-1,5,5-trimethyl-1,3,4,5-tetrahydro-benzo[b]azepin-2-one] | < 100 | 1000 to 10000 | – | – | –
22 | CCNC(=O)c1ccccc1Nc1nc(Nc2c(OC)ccc3c2CC(=O)N(CC)CC3)ncc1Cl [Example 1134, 2-[5-Chloro-2-(3-ethyl-7-methoxy-4-oxo-2,3,4,5-tetrahydro-1H-benzo[d]azepin-6-ylamino)-pyrimidin-4-ylamino]-N-ethyl-benzamide] | > 10000 | > 10000 | – | – | –
23 | CNC(=O)c1cccc(Cl)c1Nc1nc(Nc2ccc3c(c2)CCCC(=O)N3CCOC)ncc1Cl [Example 357, 3-Chloro-2-{5-chloro-2-[1-(2-methoxy-ethyl)-2-oxo-2,3,4,5-tetrahydro-1H-benzo[b]azepin-7-ylamino]-pyrimidin-4-ylamino}-N-methyl-benzamide] | – | – | 1000 to 10000 | < 100 | –
24 | CNC(=O)c1cc(OC)ccc1Nc1nc(Nc2ccc3c(c2)CCN(CCOC)CC3)ncc1Cl [Example 618, 2-{5-Chloro-2-[3-(2-methoxy-ethyl)-2,3,4,5-tetrahydro-1H-benzo[d]azepin-7-ylamino]-pyrimidin-4-ylamino}-5-methoxy-N-methyl-benzamide] | – | – | – | – | IC50 [1, 3]: < 100 nM; IC50 [2, 4]: < 100 nM
